# According to paper PMC5586252, “PP2A-B′ holoenzyme substrate recognition, regulation and role in cytokinesis” (Cell Discovery, 2017):
# “Also recorded” adds a separate entry of the source. Where no end group is shown, it is not given here.
# Experiments:
# B′γ1 = target: T1, B′γ1 (Homo sapiens, UniProt Q13362); experiment: Isothermal titration calorimetry of synthetic peptides; format: binding; settings: for interaction with B′γ1 by ITC (in words): phospho-peptides with pS/pT at position 6 and negatively charged residues at positions 2, 7 and 8; for Kd: ITC, 1 mM peptide titrated to 20–50 μM B′γ1, 20 mM HEPES pH 7.5, 200 mM NaCl
# T1 construct: Expression and purification of full-length PP2A Aα, Cα, B′γ1 and PR70 (B″ family); made in house
# T1 sequence (Q13362 whole entry, looked up): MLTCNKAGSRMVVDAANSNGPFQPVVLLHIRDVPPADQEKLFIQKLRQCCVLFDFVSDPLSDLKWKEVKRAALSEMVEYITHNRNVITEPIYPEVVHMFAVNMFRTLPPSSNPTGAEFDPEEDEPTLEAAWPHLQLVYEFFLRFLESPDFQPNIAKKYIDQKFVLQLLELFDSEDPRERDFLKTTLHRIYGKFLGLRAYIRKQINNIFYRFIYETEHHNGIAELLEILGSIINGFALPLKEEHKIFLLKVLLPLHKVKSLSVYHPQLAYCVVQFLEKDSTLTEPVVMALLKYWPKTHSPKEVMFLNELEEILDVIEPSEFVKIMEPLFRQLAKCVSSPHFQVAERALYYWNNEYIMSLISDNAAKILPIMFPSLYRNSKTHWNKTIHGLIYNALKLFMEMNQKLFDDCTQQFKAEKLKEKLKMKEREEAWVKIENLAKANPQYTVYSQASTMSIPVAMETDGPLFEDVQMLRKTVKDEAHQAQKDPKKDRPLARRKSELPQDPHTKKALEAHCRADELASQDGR
# Experimental: The binding affinities between B′γ1 and synthetic CIP2A and Cyk4 peptides (GenScript, Piscataway, NJ, USA) were determined by titrating 1 mM of peptides to 20–50 μM B′γ1 in 20 mM HEPES (pH 7.5), 200 mM NaCl using VP-ITC microcalorimeter (MicroCal, Malvern Instrument, Malvern, UK). The data were fitted with Origin 7.0 (MicroCal, Malvern Instrument, Malvern, UK) to calculate the equilibrium association constant.
# [1] = tested on: PP2Ac–Cyk4 interaction in HeLa cells; experiment: Co-immunoprecipitation of FLAG-Cyk4 with PP2Ac in synchronized cells; format: cell-based; settings: 200 nM for 30 min; HeLa cells with FLAG-Cyk4 and V5-CIP2A, synchronized with monastrol, 0–90 min after its removal
# Experimental: Thirty-six hours after HeLa cells were transfected with FLAG-Cyk4 and V5-CIP2A expression vectors, the transfected cells were arrested at […] with 100 μM monastrol for 14 h, followed by incubation with 200 nM BI-2536 or solvent control for 30 min. Cells were collected at the indicated time points after removal of monastrol to allow cell cycle progression. The interaction between FLAG-Cyk4 and PP2Ac were determined by co-immunoprecipitation using antibody that specifically recognizes FLAG-tag. PP2Ac associated with FLAG-Cyk4 and from cell lysate input were determined by western blot using customer-made antibody against PP2Ac.
Compound,interaction with B′γ1 by ITC (in words) (B′γ1),Kd (B′γ1),other results
LEPVRpSEE,no binding; also recorded: no interaction could be detected,,
LEPIRpSEE,no binding; also recorded: no interaction could be detected,,
NRKLESVAEEHE [CIP2A peptide],,7.2 µM,
LEPIRpTEE,no binding; also recorded: no interaction could be detected,,
CC[C@@H]1C(=O)N(C)c2cnc(Nc3ccc(C(=O)NC4CCN(C)CC4)cc3OC)nc2N1C1CCCC1 [BI-2536],,,effect on interaction between PP2Ac and Cyk4 (co-IP) [1]: blocked and delayed the interaction between PP2Ac and Cyk4
NKRLSTIDEEGS [Cyk4 peptide S149E],,1.59 µM,
